One assay deals with T1, Human cGAS (Homo sapiens, UniProt Q8N884).
T1 construct: hexahistidine tag (N, cleaved yes); made in house; host or cells: E. coli BL21 DE3 Rosetta 2
The experiment in a line: cGAS biochemical activity assay (ATP levels by Kinase-Glo Max luminescence). The conditions noted are these: human cGAS amino acids 155-522, 25 nM, activated by 1 μM double stranded DNA, 37° C. for 1.25 hours. Here is the method:
Human cGAS sequence encoding amino acids 155-522 was cloned into a pET (EMD Millipore) based expression plasmid. The resulting construct contained a tandem N-terminal hexahistidine tag, maltose binding protein fusion followed by a tobacco etch virus protease cleavable linker preceding cGAS amino acids 155-522.
Protein was expressed and purified from E. coli BL21 DE3 Rosetta 2 (EMD Millipore) cells using standard techniques. Cells were grown in 2× yeast extract tryptone medium and expression was initiated via the addition of isopropyl β-D-1-thiogalactopyranoside. Expression proceeded overnight at 18° C. Cells were harvested by centrifugation and subsequently […] via sonication. Insoluble fraction was removed by centrifugation. Maltose binding protein (MBP) fusion proteins were purified on a dextrin sepharose column (GE Healthcare) and the MBP tag was removed using tobacco etch virus protease overnight during dialysis. Protein was further purified on a heparin column (GE Healthcare) and eluted using a NaCl gradient. Column fraction were pooled and further purified on a Superdex 75 gel filtration column (GE Healthcare). Protein was quantified using 280 nm absorbance. Protein was then flash frozen in liquid nitrogen and stored at −80° C., until use.
Potential antagonists were diluted in 100% dimethyl sulfoxide and added to the reaction. Final dimethyl sulfoxide concentration was 5%. The compounds were tested from 250 μM with 5-fold serial dilutions down to 0.000128 μM.
Two complementary DNA oligos (IDT DNA) were annealed by slow cooling from 95° C. The resulting double stranded DNA was used to activate cGAS.
Reactions were performed at 37° C., for 1.25 hours. Reaction buffer: 20 mM Tris HCl pH 9, 100 mM NaCl, 5 mM MgCl2, 0.1 mg/ml bovine gamma globulin, 1 mM adenosine triphosphate, 250 μM guanosine triphosphate, 0.5 mM Tris(2-carboxyethyl)phosphine hydrochloride, 1 μM double stranded DNA and 25 nM purified cGAS protein.
Reactions were stopped and ATP levels in the reaction were measured using a luciferase based assay. Promega Kinase-Glo Max Assay. Luminescence was measured on a plate reader (Molecular Devices). Values were normalized to control wells lacking compound.
(In Kinase-Glo more light means more ATP remaining.)

The test system of a further assay is cGAS/STING pathway. The experiment in a line: THP1 cell-based cGAS/STING pathway activity assay (luciferase reporter linked to IRF-3 activation). The conditions noted are these: Homo sapiens, THP-1. An excerpt: A cellular assay can be used to assess the compounds of the invention for their ability to inhibit the cGAS/STING pathway. Cells that express a luciferase-based reporter that is linked to IRF-3 activation are used to determine response as a function of compound concentration. Such an assay is described in Vincent et al., Nature Communications 2017, 8(1):750, doi: 10.1038/s41467-017-00833-9.
A cellular assay can be used to assess the compounds of the invention for their ability to inhibit the cGAS/STING pathway. Cells that express a luciferase-based reporter that is linked to IRF-3 activation are used to determine response as a function of compound concentration. Such an assay is described in Vincent et al., Nature Communications 2017, 8(1):750, doi: 10.1038/s41467-017-00833-9. Compounds of the invention were assessed using similar assay methods in a THP1 cell assay to generate IC50 values.
In general terms: In a reporter assay the amount or activity of a reporter protein is the signal.

Usually IC50 stands for the point on the concentration scale where inhibition reaches its midpoint. A lower IC50 goes with greater potency.

T1 sequence (Q8N884 157-522): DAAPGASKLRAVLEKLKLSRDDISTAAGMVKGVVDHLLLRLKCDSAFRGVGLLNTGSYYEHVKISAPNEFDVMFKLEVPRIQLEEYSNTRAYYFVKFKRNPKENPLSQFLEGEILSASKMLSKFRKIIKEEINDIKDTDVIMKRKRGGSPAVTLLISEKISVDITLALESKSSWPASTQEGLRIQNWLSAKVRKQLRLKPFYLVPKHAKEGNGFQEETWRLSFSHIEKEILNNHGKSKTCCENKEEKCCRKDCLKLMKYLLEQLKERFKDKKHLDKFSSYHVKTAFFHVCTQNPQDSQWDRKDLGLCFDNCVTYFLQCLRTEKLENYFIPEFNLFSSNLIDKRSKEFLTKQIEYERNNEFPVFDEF

Compound `Cc1cc(=O)c2nc(C#N)c(-c3ccccc3)n2[nH]1` [Compound 3, 6-methyl-8-oxo-3-phenyl-5,8-dihydroimidazo[1,2-b]pyridazine-2-carbonitrile] showed an IC50 against Human cGAS of under 1000 nM.
Take `Cc1[nH]n2c(-c3ccccc3)c(C#N)nc2c(=O)c1-c1cccc(Cl)c1` [Compound 6, 7-(3-chlorophenyl)-6-methyl-8-oxo-3-phenyl-5,8-dihydroimidazo[1,2-b]pyridazine-2-carbonitrile]: the IC50 in the assay with cGAS/STING pathway was under 10000 nM; against Human cGAS it was under 1000 nM.
Taken in the same sequence, the figures for `COc1cccc(-c2c(C)[nH]n3c(-c4ccccc4)c(C#N)nc3c2=O)c1` [Compound 5, 7-(3-methoxyphenyl)-6-methyl-8-oxo-3-phenyl-5,8-dihydroimidazo[1,2-b]pyridazine-2-carbonitrile] were under 10000 nM and under 1000 nM.
For `CCc1ccc(-c2c(C)[nH]n3c(-c4ccccc4)c(C#N)nc3c2=O)cc1` [Compound 13, 7-(4-ethylphenyl)-6-methyl-8-oxo-3-phenyl-5,8-dihydroimidazo[1,2-b]pyridazine-2-carbonitrile], in that order: under 10000 nM and under 1000 nM.
